“And” between values parts separate entries of the source, which are not always exact repeats. Equal entries are not always repeated.
Tests used:
SfurOBP1 = SfurOBP1 (Sogatella furcifera, UniProt V5T8N5); experiment: biochemical; type: binding; conditions: for Fluorescence competitive binding assay, fluorescence intensity: OBP1, three replicate columns
Summary of the method: (§1)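 Fluorescence competitive binding used 2.0 µM SfurOBP and 2.0 µM 1-NPN reporter in 50 mM Tris-HCl, pH 7.4, with odorants at 2-20 µM. Fluorescence was read 2 min after adding the odorant (excitation 337 nm, emission 390-490 nm), in triplicate. Ki was calculated from IC50 as IC50/(1 + [1-NPN]/K1-NPN).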

SfurOBP11 = SfurOBP11 (Sogatella furcifera, UniProt V5T6E3); experiment: biochemical; type: binding
SfurOBP11, sequence (V5T6E3 entry or part of it): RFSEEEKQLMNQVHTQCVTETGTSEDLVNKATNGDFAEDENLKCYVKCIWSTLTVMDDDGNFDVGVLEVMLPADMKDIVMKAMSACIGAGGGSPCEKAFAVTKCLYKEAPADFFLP
Summary of the method: as §1

SfurOBP2 = SfurOBP2 (Sogatella furcifera, UniProt V5T759); experiment: biochemical; type: binding
SfurOBP2, sequence (V5T759 entry or part of it): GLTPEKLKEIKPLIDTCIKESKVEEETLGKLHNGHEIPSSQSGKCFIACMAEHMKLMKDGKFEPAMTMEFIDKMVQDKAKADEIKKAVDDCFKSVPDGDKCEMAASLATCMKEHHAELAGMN
Summary of the method: as §1

SfurOBP3 = SfurOBP3 (Sogatella furcifera, UniProt V5T818); experiment: biochemical; type: binding; conditions: for Fluorescence competitive binding assay, fluorescence intensity: OBP3, three replicate columns;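 for Fluorescence competitive binding assay, fluorescence intensity: competitor odorant at 2 to 20 µM with protein and 1-NPN both 2.0 µM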
SfurOBP3, sequence (V5T818 entry or part of it): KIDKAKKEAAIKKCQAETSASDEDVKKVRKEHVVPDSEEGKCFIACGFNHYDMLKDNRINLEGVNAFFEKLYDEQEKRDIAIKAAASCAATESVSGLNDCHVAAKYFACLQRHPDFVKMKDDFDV
Summary of the method: as §1

S. furcifera adults = experiment: Y-tube olfactometer behavioral trials; type: in vivo, Sogatella furcifera; conditions: odorant 50 µL/L vs hexane
Summary of the method: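 Single S. furcifera adults (2 days post-emergence, starved 0.5 h) chose between odorant (100 µL of 50 µL/L on filter paper) and hexane control in a glass Y-tube, charcoal-filtered humidified air 300 mL/min per arm, 25 ± 1 °C, 50% RH. Choice scored if insect passed half an arm and stayed >1 min within 10 min; 45 insects per compound, chi-squared test.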
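Throughout, for Fluorescence competitive binding assay, fluorescence intensity: competitor odorant at 2 to 20 µM with protein and 1-NPN both 2.0 µM.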

SfurOBP1, sequence (V5T8N5 entry or part of it): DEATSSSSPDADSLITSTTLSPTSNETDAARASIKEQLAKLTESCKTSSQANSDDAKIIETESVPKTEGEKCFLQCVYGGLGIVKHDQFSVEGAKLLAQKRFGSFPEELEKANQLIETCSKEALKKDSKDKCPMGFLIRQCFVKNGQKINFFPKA

IC50 (SfurOBP1): > 20 µM
Fluorescence competitive binding assay, fluorescence intensity (SfurOBP1; ligand concentration 2 (μM)): 7051 and 7963 and 8084
Fluorescence competitive binding assay, fluorescence intensity (SfurOBP1; ligand concentration 4 (μM)): 8179 and 8456 and 7621
Fluorescence competitive binding assay, fluorescence intensity (SfurOBP1; ligand concentration 6 (μM)): 7891 and 8214 and 10941
Fluorescence competitive binding assay, fluorescence intensity (SfurOBP1; ligand concentration 8 (μM)): 7486 and 8333 and 7729
Fluorescence competitive binding assay, fluorescence intensity (SfurOBP1; ligand concentration 10 (μM)): 7166 and 7631 and 8078
Fluorescence competitive binding assay, fluorescence intensity (SfurOBP1; ligand concentration 12 (μM)): 13786 and 8045 and 7592
Fluorescence competitive binding assay, fluorescence intensity (SfurOBP1; ligand concentration 14 (μM)): 7676 and 7139 and 7314
Fluorescence competitive binding assay, fluorescence intensity (SfurOBP1; ligand concentration 16 (μM)): 6374 and 6355 and 6393
Fluorescence competitive binding assay, fluorescence intensity (SfurOBP1; ligand concentration 18 (μM)): 6677 and 6433 and 6722
Fluorescence competitive binding assay, fluorescence intensity (SfurOBP1; ligand concentration 20 (μM)): 6744 and 6442 and 6578
IC50 (SfurOBP11): 19.9 µM
Fluorescence intensity, fluorescence competitive binding assay, OBP11 (SfurOBP11; ligand concentration 2, replicate 1): 28050
Fluorescence intensity, fluorescence competitive binding assay, OBP11 (SfurOBP11; ligand concentration 2, replicate 2): 27736
Fluorescence intensity, fluorescence competitive binding assay, OBP11 (SfurOBP11; ligand concentration 2, replicate 3): 27612
Fluorescence intensity, fluorescence competitive binding assay, OBP11 (SfurOBP11; ligand concentration 4, replicate 1): 28634
Fluorescence intensity, fluorescence competitive binding assay, OBP11 (SfurOBP11; ligand concentration 4, replicate 2): 28801
Fluorescence intensity, fluorescence competitive binding assay, OBP11 (SfurOBP11; ligand concentration 4, replicate 3): 26168
Fluorescence intensity, fluorescence competitive binding assay, OBP11 (SfurOBP11; ligand concentration 6, replicate 1): 26910
Fluorescence intensity, fluorescence competitive binding assay, OBP11 (SfurOBP11; ligand concentration 6, replicate 2): 26403
Fluorescence intensity, fluorescence competitive binding assay, OBP11 (SfurOBP11; ligand concentration 6, replicate 3): 26657
Fluorescence intensity, fluorescence competitive binding assay, OBP11 (SfurOBP11; ligand concentration 8, replicate 1): 23184
Fluorescence intensity, fluorescence competitive binding assay, OBP11 (SfurOBP11; ligand concentration 8, replicate 2): 24499
Fluorescence intensity, fluorescence competitive binding assay, OBP11 (SfurOBP11; ligand concentration 8, replicate 3): 24103
Fluorescence intensity, fluorescence competitive binding assay, OBP11 (SfurOBP11; ligand concentration 10, replicate 1): 21871
Fluorescence intensity, fluorescence competitive binding assay, OBP11 (SfurOBP11; ligand concentration 10, replicate 2): 21831
Fluorescence intensity, fluorescence competitive binding assay, OBP11 (SfurOBP11; ligand concentration 10, replicate 3): 22447
Fluorescence intensity, fluorescence competitive binding assay, OBP11 (SfurOBP11; ligand concentration 12, replicate 1): 20048
Fluorescence intensity, fluorescence competitive binding assay, OBP11 (SfurOBP11; ligand concentration 12, replicate 2): 20727
Fluorescence intensity, fluorescence competitive binding assay, OBP11 (SfurOBP11; ligand concentration 12, replicate 3): 21593
Fluorescence intensity, fluorescence competitive binding assay, OBP11 (SfurOBP11; ligand concentration 14, replicate 1): 17047
Fluorescence intensity, fluorescence competitive binding assay, OBP11 (SfurOBP11; ligand concentration 14, replicate 2): 18839
Fluorescence intensity, fluorescence competitive binding assay, OBP11 (SfurOBP11; ligand concentration 14, replicate 3): 19615
Fluorescence intensity, fluorescence competitive binding assay, OBP11 (SfurOBP11; ligand concentration 16, replicate 1): 15254
Fluorescence intensity, fluorescence competitive binding assay, OBP11 (SfurOBP11; ligand concentration 16, replicate 2): 16765
Fluorescence intensity, fluorescence competitive binding assay, OBP11 (SfurOBP11; ligand concentration 16, replicate 3): 16613
Fluorescence intensity, fluorescence competitive binding assay, OBP11 (SfurOBP11; ligand concentration 18, replicate 1): 17103
Fluorescence intensity, fluorescence competitive binding assay, OBP11 (SfurOBP11; ligand concentration 18, replicate 2): 17364
Fluorescence intensity, fluorescence competitive binding assay, OBP11 (SfurOBP11; ligand concentration 18, replicate 3): 18167
Fluorescence intensity, fluorescence competitive binding assay, OBP11 (SfurOBP11; ligand concentration 20, replicate 1): 16580
Fluorescence intensity, fluorescence competitive binding assay, OBP11 (SfurOBP11; ligand concentration 20, replicate 2): 17841
Fluorescence intensity, fluorescence competitive binding assay, OBP11 (SfurOBP11; ligand concentration 20, replicate 3): 17555
IC50 (SfurOBP2): 20 µM
Fluorescence competitive binding assay, OBP2 (raw fluorescence reading) (SfurOBP2; ligand concentration 2 (unit not given), replicate column 1 of 3): 20663
Fluorescence competitive binding assay, OBP2 (raw fluorescence reading) (SfurOBP2; ligand concentration 2 (unit not given), replicate column 2 of 3): 19168
Fluorescence competitive binding assay, OBP2 (raw fluorescence reading) (SfurOBP2; ligand concentration 2 (unit not given), replicate column 3 of 3): 19828
Fluorescence competitive binding assay, OBP2 (raw fluorescence reading) (SfurOBP2; ligand concentration 4 (unit not given), replicate column 1 of 3): 20326
Fluorescence competitive binding assay, OBP2 (raw fluorescence reading) (SfurOBP2; ligand concentration 4 (unit not given), replicate column 2 of 3): 19347
Fluorescence competitive binding assay, OBP2 (raw fluorescence reading) (SfurOBP2; ligand concentration 4 (unit not given), replicate column 3 of 3): 18863
Fluorescence competitive binding assay, OBP2 (raw fluorescence reading) (SfurOBP2; ligand concentration 6 (unit not given), replicate column 1 of 3): 19895
Fluorescence competitive binding assay, OBP2 (raw fluorescence reading) (SfurOBP2; ligand concentration 6 (unit not given), replicate column 2 of 3): 18583
Fluorescence competitive binding assay, OBP2 (raw fluorescence reading) (SfurOBP2; ligand concentration 6 (unit not given), replicate column 3 of 3): 19617
Fluorescence competitive binding assay, OBP2 (raw fluorescence reading) (SfurOBP2; ligand concentration 8 (unit not given), replicate column 1 of 3): 17627
Fluorescence competitive binding assay, OBP2 (raw fluorescence reading) (SfurOBP2; ligand concentration 8 (unit not given), replicate column 2 of 3): 19078
Fluorescence competitive binding assay, OBP2 (raw fluorescence reading) (SfurOBP2; ligand concentration 8 (unit not given), replicate column 3 of 3): 16731
Fluorescence competitive binding assay, OBP2 (raw fluorescence reading) (SfurOBP2; ligand concentration 10 (unit not given), replicate column 1 of 3): 16901
Fluorescence competitive binding assay, OBP2 (raw fluorescence reading) (SfurOBP2; ligand concentration 10 (unit not given), replicate column 2 of 3): 16412
Fluorescence competitive binding assay, OBP2 (raw fluorescence reading) (SfurOBP2; ligand concentration 10 (unit not given), replicate column 3 of 3): 15901
Fluorescence competitive binding assay, OBP2 (raw fluorescence reading) (SfurOBP2; ligand concentration 12 (unit not given), replicate column 1 of 3): 15640
Fluorescence competitive binding assay, OBP2 (raw fluorescence reading) (SfurOBP2; ligand concentration 12 (unit not given), replicate column 2 of 3): 15758
Fluorescence competitive binding assay, OBP2 (raw fluorescence reading) (SfurOBP2; ligand concentration 12 (unit not given), replicate column 3 of 3): 15363
Fluorescence competitive binding assay, OBP2 (raw fluorescence reading) (SfurOBP2; ligand concentration 14 (unit not given), replicate column 1 of 3): 13711
Fluorescence competitive binding assay, OBP2 (raw fluorescence reading) (SfurOBP2; ligand concentration 14 (unit not given), replicate column 2 of 3): 13915
Fluorescence competitive binding assay, OBP2 (raw fluorescence reading) (SfurOBP2; ligand concentration 14 (unit not given), replicate column 3 of 3): 13962
Fluorescence competitive binding assay, OBP2 (raw fluorescence reading) (SfurOBP2; ligand concentration 16 (unit not given), replicate column 1 of 3): 12366
Fluorescence competitive binding assay, OBP2 (raw fluorescence reading) (SfurOBP2; ligand concentration 16 (unit not given), replicate column 2 of 3): 12873
Fluorescence competitive binding assay, OBP2 (raw fluorescence reading) (SfurOBP2; ligand concentration 16 (unit not given), replicate column 3 of 3): 12910
Fluorescence competitive binding assay, OBP2 (raw fluorescence reading) (SfurOBP2; ligand concentration 18 (unit not given), replicate column 1 of 3): 12338
Fluorescence competitive binding assay, OBP2 (raw fluorescence reading) (SfurOBP2; ligand concentration 18 (unit not given), replicate column 2 of 3): 12028
Fluorescence competitive binding assay, OBP2 (raw fluorescence reading) (SfurOBP2; ligand concentration 18 (unit not given), replicate column 3 of 3): 11737
Fluorescence competitive binding assay, OBP2 (raw fluorescence reading) (SfurOBP2; ligand concentration 20 (unit not given), replicate column 1 of 3): 11557
Fluorescence competitive binding assay, OBP2 (raw fluorescence reading) (SfurOBP2; ligand concentration 20 (unit not given), replicate column 2 of 3): 10983
Fluorescence competitive binding assay, OBP2 (raw fluorescence reading) (SfurOBP2; ligand concentration 20 (unit not given), replicate column 3 of 3): 11423
IC50 (SfurOBP3): 12 µM
Fluorescence competitive binding assay, fluorescence intensity (SfurOBP3; ligand concentration 2): 49137 and 48472 and 49801
Fluorescence competitive binding assay, fluorescence intensity (SfurOBP3; ligand concentration 4): 47017 and 46358 and 43965
Fluorescence competitive binding assay, fluorescence intensity (SfurOBP3; ligand concentration 6): 39740 and 42626 and 39389
Fluorescence competitive binding assay, fluorescence intensity (SfurOBP3; ligand concentration 8): 37430 and 36910 and 36009
Fluorescence competitive binding assay, fluorescence intensity (SfurOBP3; ligand concentration 10): 35904 and 33157 and 32677
Fluorescence competitive binding assay, fluorescence intensity (SfurOBP3; ligand concentration 12): 30694 and 33051 and 28374
Fluorescence competitive binding assay, fluorescence intensity (SfurOBP3; ligand concentration 14): 26192 and 26407 and 26489
Fluorescence competitive binding assay, fluorescence intensity (SfurOBP3; ligand concentration 16): 23097 and 23904 and 24653
Fluorescence competitive binding assay, fluorescence intensity (SfurOBP3; ligand concentration 18): 23846 and 23655 and 23476
Fluorescence competitive binding assay, fluorescence intensity (SfurOBP3; ligand concentration 20): 21994 and 24647 and 23321
binding affinity to SfurOBP3 (in words) (SfurOBP3; SfurOBP3): high binding affinities
SMILES: CC(=O)/C=C/C1=C(C)CCCC1(C)C [β-Ionone]
behavioral response of S. furcifera (in words) (S. furcifera adults): strongly attracted
number of insects choosing hexane arm (S. furcifera adults; adults): 18
number of insects choosing volatilies arm (S. furcifera adults; adults): 10
number of insects failed (no choice) (S. furcifera adults; adults): 12

Reference: article PMC6409085, “Three odorant-binding proteins are involved in the behavioral response of Sogatella furcifera to rice plant volatiles” (PeerJ, 2019)
